“Also recorded” adds a separate entry of the source. Positions of bridges follow the written chain, without caps; N, C: chain ends. Non-standard residues stand in square brackets, D forms with d. Residues, ends and D or L forms follow the SMILES beside them. No end group written: not given here.
T1: RP-170 (lactam 2-5)
T1 chain: Y[dK]FFD-NH2

T2: KW-496 (lactam 2-5)
T2 chain: Y[dK]FFDGGGRYYRIK-NH2

T3: KW-495 (lactam 2-5)
T3 chain: Y[dK]FFDRYYRIK-NH2

B1: DOP (protein)
chain: MEPAPSAGAELQPPLFANASDAYPSACPSAGANASGPPGARSASSLALAIAITALYSAVCAVGLLGNVLVMFGIVRYTKMKTATNIYIFNLALADALATSTLPFQSAKYLMETWPFGELLCKAVLSIDYYNMFTSIFTLTMMSVDRYIAVCHPVKALDFRTPAKAKLINICIWVLASGVGVPIMVMAVTRPRDGAVVCMLQFPSPSWYWDTVTKICVFLFAFVVPILIITVCYGLMLLRLRSVRLLSGSKEKDRSLRRITRMVLVVVGAFVVCWAPIHIFVIVWTLVDIDRRDPLVVAALHLCIALGYANSSLNPVLYAFLDENFKRCFRQLCRKPCGRPDPSSFSRAREATARERVTACTPSDGPGGGAAA

Legend:
human MOP [1] = target: T4, human MOP (Homo sapiens, UniProt P35372); assay: cell-based
T4 sequence (P35372 whole entry): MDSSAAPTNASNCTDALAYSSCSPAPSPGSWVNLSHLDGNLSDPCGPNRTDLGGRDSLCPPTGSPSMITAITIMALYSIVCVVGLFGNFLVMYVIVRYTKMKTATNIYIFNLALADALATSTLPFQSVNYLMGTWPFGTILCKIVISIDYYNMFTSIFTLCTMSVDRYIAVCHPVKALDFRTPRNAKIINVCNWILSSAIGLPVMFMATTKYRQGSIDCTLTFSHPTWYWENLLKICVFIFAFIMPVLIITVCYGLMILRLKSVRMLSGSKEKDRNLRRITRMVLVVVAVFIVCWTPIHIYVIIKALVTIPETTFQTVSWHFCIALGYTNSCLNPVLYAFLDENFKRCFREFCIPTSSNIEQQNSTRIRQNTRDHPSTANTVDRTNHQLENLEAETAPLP

human KOP = target: T5, human KOP (Homo sapiens, UniProt P41145); assay: cell-based; settings: for KOP α ± SEM: efficacy (intrinsic activity) relative to dynorphin A; for KOP α ± SEM / KOP pEC50 (CL95%): inactive = inactive up to 1 μM; for KOP pEC50 (CL95%): agonist potency, calcium mobilization
T5 construct: expressed in transfected cells; host or cells: CHO cells
T5 sequence (P41145 whole entry): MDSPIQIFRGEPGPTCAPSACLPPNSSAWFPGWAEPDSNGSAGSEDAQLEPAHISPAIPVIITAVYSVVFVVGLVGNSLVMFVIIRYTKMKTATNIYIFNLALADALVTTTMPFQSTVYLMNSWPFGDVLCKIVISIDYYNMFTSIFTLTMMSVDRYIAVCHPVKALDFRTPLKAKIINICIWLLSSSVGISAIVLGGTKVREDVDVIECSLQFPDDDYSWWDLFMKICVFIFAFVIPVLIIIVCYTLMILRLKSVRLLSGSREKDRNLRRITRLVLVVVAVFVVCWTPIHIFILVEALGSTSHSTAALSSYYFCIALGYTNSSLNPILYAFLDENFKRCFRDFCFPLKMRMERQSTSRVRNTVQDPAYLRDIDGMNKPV

human DOP [2] = target: T6, human DOP (Homo sapiens, UniProt P41143); format: cell-based; design: expressed in transfected cells; host or cells: CHO cells; settings: inactive = inactive up to 1 μM; for DOP pEC50 (CL95%): agonist potency, calcium mobilization; for DOP α ± SEM: efficacy (intrinsic activity) relative to DPDPE
[3] = target: T7, human nociceptin/orphanin FQ peptide receptor (NOP) (Homo sapiens, UniProt P41146); assay: [leucyl-3H]nociceptin displacement binding assay
T7 construct: expressed in transfected cells; host or cells: CHO cells (CHOhNOP; gift from GSK), membrane homogenate
T7 sequence (P41146 whole entry): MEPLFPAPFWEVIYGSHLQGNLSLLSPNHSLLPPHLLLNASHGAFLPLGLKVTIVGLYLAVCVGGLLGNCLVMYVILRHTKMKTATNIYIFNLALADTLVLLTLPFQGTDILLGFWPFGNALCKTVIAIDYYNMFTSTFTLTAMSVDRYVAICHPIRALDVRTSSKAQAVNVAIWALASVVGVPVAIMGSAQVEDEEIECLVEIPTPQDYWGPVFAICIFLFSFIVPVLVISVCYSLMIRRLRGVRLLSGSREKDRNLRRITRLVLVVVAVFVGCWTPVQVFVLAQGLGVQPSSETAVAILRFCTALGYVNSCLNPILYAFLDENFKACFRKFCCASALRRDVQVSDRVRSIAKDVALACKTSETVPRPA
Description: Radioactivity was determined after an 8 h extraction period.
(§1) The IC50 values were determined from the logarithmic concentration–displacement curves, and the values of the inhibitory constants (Ki) were calculated according to the equation of Cheng and Prusoff.

human NOP = human NOP (Homo sapiens, UniProt P41146); assay: calcium mobilization assay, CHO cells co-expressing NOP and Gαqi5; settings: for NOP pEC50 (CL95%): agonist potency, calcium mobilization, inactive = inactive up to 1 μM
Sequence of human NOP (P41146 whole entry): as above

mice [4] = assay: mouse hot-plate test (antinociception); settings: i.t. administration, value with range in parentheses
mice [5] = assay: rotarod test (motor coordination); format: in vivo; settings: 6.2 nmol/animal, i.t.; compared to control group
Description: Rotarod apparatus (Ugo Basile, No. 8466, Italy) was used to estimate the probable influence of peptide on motor coordination of animals. In the training period, 3 trials were conducted for 3 consecutive days. Animals that were able to stay on the rotating (16 revolutions/min) bar more than 180 s were chosen for the tests. In the experimental session, each animal was tested on the rotarod, and duration to fall from the rotating bar was noted.

human DOP [6] = target: T6, human DOP; assay: [3H]deltorphin-2 displacement binding assay; design: purchased PerkinElmer; host or cells: CHO cells; settings: for pKi DOP: displacement of [3H]deltorphin-2 from CHOhDOP cell homogenates, mean ± SEM, n = 5
Description: (§2) Membranes were incubated in 0.5 mL of 50 mM Tris/HCl (pH = 7.4), 0.5% bovine serum albumin (BSA), with a number of peptidase inhibitors (bacitracin, bestatin, captopril) and various concentrations of radioligands for 2 h at 25 °C. Non-specific binding was assessed in the presence of […] naloxone. Assays were incubated at room temperature for […] and reactions were terminated via filtration through Whatman GF/B filters, soaked in 0.5% polyethyleneimine (PEI), using Millipore Sampling Manifold (Billerica, MA, USA). Radioactivity was determined after an 8 h extraction period.
as §1

human MOP [7] = target: T4, human MOP; assay: [3H]DAMGO displacement binding assay; design: purchased PerkinElmer; host or cells: CHO cells
Description: as §2, §1

human MOP [8] = target: T4, human MOP; settings: agonist potency, calcium mobilization; inactive = inactive up to 1 μM
RP-170 = target: T1, RP-170; assay: radioligand competition ([3H]deltorphin-2)
KW-496 = target: T2, KW-496; assay: radioligand competition ([3H]deltorphin-2)
KW-495 = target: T3, KW-495; assay: radioligand competition ([3H]deltorphin-2)

Molecule | DOP pEC50 (CL95%) (human DOP [2]) | DOP α ± SEM (human DOP [2]) | Ki (human DOP [6]) [nM] | Ki (human MOP [7]) [nM] | KOP α ± SEM (human KOP) | NOP pEC50 (CL95%) (human NOP) | further results
CC[C@H](C)[C@H](NC(=O)[C@H](CCCNC(=N)N)NC(=O)[C@H](Cc1ccc(O)cc1)NC(=O)[C@H](Cc1ccc(O)cc1)NC(=O)[C@H](CCCNC(=N)N)NC(=O)[C@@H]1CC(=O)NCCCC[C@@H](NC(=O)[C@@H](N)Cc2ccc(O)cc2)C(=O)N[C@@H](Cc2ccccc2)C(=O)N[C@@H](Cc2ccccc2)C(=O)N1)C(=O)N[C@@H](CCCCN)C(N)=O [KW-495, Tyr-c[D-Lys-Phe-Phe-Asp]-Arg-Tyr-Tyr-Arg-Ile-Lys-NH2] (HELM PEPTIDE1{Y.[dK].F.F.D.R.Y.Y.R.I.K.[am]}$PEPTIDE1,PEPTIDE1,2:R3-5:R3$$$V2.0; N-terminus assumed) | inactive | inactive | > 1000 | 4.47 | – | – | EC50 (human MOP [1]): 8.71 nM; EC50 (human KOP): 2.82 nM; Ki [3]: 2.24 nM; EC50 (human NOP): 75.9 nM; ED50 (jumping response) (mice [4]): 4.59 (1.17–18.09) nmol; effect on motor coordination (falling latency) (mice [5]): did not cause any significant effect; pKi DOP (human DOP [6]): did not bind to DOP
CC[C@H](C)[C@H](NC(=O)[C@H](CCCNC(=N)N)NC(=O)[C@H](Cc1ccc(O)cc1)NC(=O)[C@H](Cc1ccc(O)cc1)NC(=O)[C@H](CCCNC(=N)N)NC(=O)CNC(=O)CNC(=O)CNC(=O)[C@@H]1CC(=O)NCCCC[C@@H](NC(=O)[C@@H](N)Cc2ccc(O)cc2)C(=O)N[C@@H](Cc2ccccc2)C(=O)N[C@@H](Cc2ccccc2)C(=O)N1)C(=O)N[C@@H](CCCCN)C(N)=O [KW-496] (HELM PEPTIDE1{Y.[dK].F.F.D.G.G.G.R.Y.Y.R.I.K.[am]}$PEPTIDE1,PEPTIDE1,2:R3-5:R3$$$V2.0) | inactive | inactive | > 1000 | 4.68 | 1.03 ± 0.02 | incomplete concentration–response curve; also recorded: Crc incomplete | EC50 (human MOP [1]): 4.9 nM; EC50 (human KOP): 1.15 nM; Ki [3]: 44.7 nM; NOP α at 1 μM (Crc incomplete) (human NOP; effect at 1 μM relative to N/OFQ, concentration-response curve incomplete): 0.33 ± 0.10; pKi DOP (human DOP [6]): did not bind to DOP
CC[C@H](C)[C@H](NC(=O)[C@H](CCCNC(=N)N)NC(=O)[C@H](Cc1ccc(O)cc1)NC(=O)[C@H](Cc1ccc(O)cc1)NC(=O)[C@H](CCCNC(=N)N)NC(C)=O)C(=O)N[C@@H](CCCCN)C(N)=O [Ac-RYYRIK-NH2, Ac-Arg-Tyr-Tyr-Arg-Ile-Lys-NH2] | inactive | inactive | – | – | inactive | – | MOP pEC50 (CL95%) (human MOP [8]): inactive; KOP pEC50 (CL95%) (human KOP): inactive
CC(C)C[C@H](NC(=O)[C@H](CCCCN)NC(=O)[C@H](CCCNC(=N)N)NC(=O)[C@H](C)NC(=O)[C@H](CO)NC(=O)[C@H](CCCCN)NC(=O)[C@H](CCCNC(=N)N)NC(=O)[C@H](C)NC(=O)CNC(=O)[C@@H](NC(=O)[C@H](Cc1ccccc1)NC(=O)CNC(=O)CNC(=O)[C@@H](N)Cc1ccccc1)[C@@H](C)O)C(=O)N[C@@H](C)C(=O)N[C@@H](CC(N)=O)C(=O)N[C@@H](CCC(N)=O)C(=O)O [N/OFQ] | – | – | – | – | – | – | MOP pEC50 (CL95%) (human MOP [8]): inactive
CC1(C)SSC(C)(C)[C@@H](NC(=O)[C@@H](N)Cc2ccc(O)cc2)C(=O)NCC(=O)N[C@@H](Cc2ccccc2)C(=O)N[C@H]1C(=O)O [DPDPE] | – | – | – | – | inactive | inactive | KOP pEC50 (CL95%) (human KOP): inactive
CC[C@H](C)[C@H](NC(=O)[C@H](CCCNC(=N)N)NC(=O)[C@H](CCCNC(=N)N)NC(=O)[C@H](CC(C)C)NC(=O)[C@H](Cc1ccccc1)NC(=O)CNC(=O)CNC(=O)[C@@H](N)Cc1ccc(O)cc1)C(=O)N[C@@H](CCCNC(=N)N)C(=O)N1CCC[C@H]1C(=O)N[C@@H](CCCCN)C(=O)N[C@@H](CC(C)C)C(=O)N[C@@H](CCCCN)C(=O)N[C@@H](Cc1c[nH]c2ccccc12)C(=O)N[C@@H](CC(=O)O)C(=O)N[C@@H](CC(N)=O)C(=O)N[C@@H](CCC(N)=O)C(=O)O [dynorphin A, reference compound] | – | 1.00 | – | – | – | inactive | –
NC(=O)[C@@H]1CC(=O)NCCCC[C@@H](NC(=O)[C@@H](N)Cc2ccc(O)cc2)C(=O)N[C@@H](Cc2ccccc2)C(=O)N[C@@H](Cc2ccccc2)C(=O)N1 [RP-170, Tyr-c[D-Lys-Phe-Phe-Asp]-NH2, reference compound] (HELM PEPTIDE1{Y.[dK].F.F.D.[am]}$PEPTIDE1,PEPTIDE1,2:R3-5:R3$$$V2.0; N-terminus assumed) | inactive | inactive | 295 | 0.617 | 1.00 ± 0.03 | completely inactive | –
B1 | – | – | – | – | – | – | Ki (RP-170): 295 nM; Ki (KW-496): > 1000 nM; Ki (KW-495): > 1000 nM

Source: paper PMC9604311 (International Journal of Molecular Sciences, 2022)
